Where two headings read alike, the source gives them in different places.
Legend:
[1] = Influence on pancreatic secretion of the narcotized rat; format: in vivo, rat (male Sprague-Dawley); details: in vivo, LD50 mouse i.p. / ED50 rat i.d.
From the text: (§1) Male Sprague-Dawley rats (body weight from 250 to 300 g) are narcotized with 1.2 g/kg urethane i.m. Then the abdominal cavity is opened medially, the bile duct is ligatured shortly above the place where it leads into the duodenum and also near to the hepatic duct, and both sections are catheterized towards the liver.
(§2) As in the rat all the pancreatic ducts lead out into the central section of the bile duct; it is possible in this way to discharge the pancreatic secretion separately from the distal (ligatured) section and the bile separately from the proximal section of the bile duct.
(§3) The quantities of pancreatic juice and bile juice obtained are measured at intervals of 30 minutes over a period from 2 hours before to 3 hours after the intraduodenal (V. jugularis externa) administration of the compounds to be tested (quantity of liquid administered 5 ml/kg).
(§4) The body temperature of the animals is maintained at 36° to 38° C. by means of electric blankets and radiation; the temperature is monitored rectally.
(§5) The liquid volumes of the 30-minute fractions after the administration of the substance are related in each case to the quantity of bile or pancreatic juice secreted prior to the application of the substance (=100%, mean of the last two measurements). The maximum percentage increase in the pancreatic or bile secretion is represented in dependence upon dose, and from this the ED50 is determined by interpolation.

pancreatic secretion = test: as above; format: in vivo, rat (male Sprague-Dawley); details: 0.5 h
From the text: as §1, §2, §3, §4, §5

[2] = Determination of toxicity (lethal action on the mouse after intraperitoneal application); format: in vivo; details: in vivo, ip
Method: The toxicity investigations are carried out on female NMRI mice (body weight 22 to 26 g). The animals (5 animals per dose) are given food and water ad lib. Different doses of the substances are administered intraperitoneally. The duration of observation is 14 days. The LD50, i.e. the dose at which 50% of the animals die, is determined graphically from the dose/effect curve.

[3] = test system: glucose formation from lactate and pyruvate in isolated perfused liver; test: Inhibition of the formation of glucose from lactate and pyruvate in the isolated perfused rat liver; parameters: species or system rat (male Sprague-Dawley); details: Table VIII
Method: For this purpose young male Sprague-Dawley rats (160 to 200 g) are used. The rats are kept in cages of up to 5 animals in a temperature-controlled room (23° C.) with a fixed day/night rhythm (12/12 hours).
Food is withheld from the animals for from 20 to 22 hours prior to the operation. They are allowed to take water ad lib. The operation and the perfusion of the liver are carried out using the technique of R. Scholz et al. [Eur. J. Biochem. 38 (1973) 64 to 72]. The perfusion liquid used is Krebs-Henseleit bicarbonate buffer (pH 7.4), which is saturated with an oxygen/carbon dioxide mixture (95/5) and contains 1.6 mmol/liter of L-lactate and 0.2 mmol/liter of pyruvate. The perfusion liquid is pumped into the liver via a cannula inserted into the portal vein. The effluent perfusion liquid is collected via a cannula inserted into the Vena cava. The liver is perfused for about 2 hours. The test compounds are infused for 16 minutes each from the 32nd to the […] after the perfusion in increasing concentrations (0.02 to 1.00 mmol/liter).
Samples of the effluent perfusion liquid are collected at one-minute intervals and analyzed for glucose, lactate and pyruvate (using standard enzymatic methods). The percentages shown in Table VIII relate to the condition occurring before and after the administration of the compounds, the changes caused solely by lactate and pyruvate being set as being equal to 100%.

[4] = Antihepatotoxic effect: duration of hexobarbital sleep of the rat after liver damage by CCl4; details: rat, in vivo
Method: (§6) The compounds to be tested are administered 1 hour prior to the administration of CCl4 orally in a liquid volume of 10 ml/kg.
(§7) The antihepatotoxic effect of the compounds to be tested (sodium salts in aqueous solution) is determined by the reduction of the prolongation of sleeping period caused by the CCl4 liver cell damage in the groups treated, as compared with the prolongation of the sleeping period of the CCl4 control group (=100%). […]

liver damage by CCl4 = test: as above; details: Rattus norvegicus, po; for ED25: read-out: ED25 antihepatotoxic effect (shortens hexobarbital narcosis by 25%)
Method: as §6, §7

[5] = Table I, read-out: TQ (LD50/ED50), pancreatic secretion
[6] = Rattus norvegicus, read-out: ED50 pancreatic secretion (dose which brings about an increase in the pancreatic secretion by a maximum of 50%)
[7] = TQ LD50/ED25, antihepatotoxic effect, LD50 mouse i.p. / ED25 rat p.o., Table V
[8] = read-out: ED50 antihepatotoxic effect (shortens hexobarbital narcosis by 50%)
[9] = Table VII, read-out: TQ [LD50/ED50], pancreatic secretion
[10] = narcotized rat, i.d., liquid volume, 30 min fraction, Table VII, read-out: ED50 pancreatic secretion (dose which brings about an increase in pancreatic secretion of a maximum of 50%)
[11] = Table X, read-out: TQ LD50/ED50, pancreatic secretion
[12] = narcotized rat, i.d., liquid volume, 30 minute fraction, Table X, read-out: ED50 pancreatic secretion (dose which brings about an increase in pancreatic secretion by a maximum of 50%)
[13] = TQ LD50/ED25, antihepatotoxic effect, LD50 mouse i.p. / ED25 rat p.o., Table XI
[14] = TQ LD50/ED50, antihepatotoxic effect, LD50 mouse i.p. / ED50 rat p.o., Table XI
[15] = TQ (LD50/ED50), antihepatotoxic effect, LD50 mouse i.p. / ED50 rat p.o., Table III
[16] = read-out: ED50 antihepatotoxic effect (dose which shortens the hexobarbital narcosis by 50%)

SMILES	selectivity ratio [1, 5]	ED50 (pancreatic secretion; [6]) [mg/kg]	LD50 at 336 h ([2]; mouse, Table I) [mg/kg]	ED25 (liver damage by CCl4) [mg/kg]	selectivity ratio [1, 11]	ED50 (pancreatic secretion; [12]) [mg/kg]	LD50 at 336 h ([2]; mouse i.p., Table X) [mg/kg]	selectivity ratio [4, 13]	also measured
CC(c1ccccc1)N(CCCCCC(=O)O)C(=O)c1ccc(Cl)cc1 (stereo not shown) [Serial No. 13, N-(p-chloro)benzoyl-6-(1-phenylethylamino)caproic acid]	110	2	220	–	–	–	–	–	–
O=C(O)CCCCN(C(=O)c1ccc(Cl)cc1)c1ccccc1-c1ccccc1 [Serial No. 28, 5-[p-chloro-N-(biphenyl-2-yl)benzamido]valeric acid]	–	–	–	3	–	–	–	–	Glucose formation, % change ([3]; 0.2 mmole/liter in the perfusate, isolated perfused liver of fasting rats): -89%; ED50 inhibition of formation of glucose from lactate and pyruvate ([3]; from 4 concentrations, 0.02 to 1.00 mmol/liter): 25 µg/mL; selectivity ratio [4, 7]: 46.7; selectivity ratio ([4]; TQ LD50/ED50, antihepatotoxic effect, LD50 mouse i.p. / ED50 rat p.o., Table V): 11.7; ED50 (liver damage by CCl4; [8]): 12 mg/kg; LD50 at 336 h ([2]; mouse i.p., Table V): 140 mg/kg
O=C(O)CCCN(C(=O)c1ccc(Cl)cc1)c1ccc(C2CCCCC2)cc1 [Serial No. 37, 4-[p-chloro-N-(1',2',3',4',5',6'-hexahydrobiphenyl-4-yl)benzamido]butyric acid]	–	–	–	≤ 10	–	–	–	–	selectivity ratio [1, 9]: ~100; ED50 (pancreatic secretion; [10]): 1.5 mg/kg; selectivity ratio [4, 7]: ≥ 15; LD50 at 336 h ([2]; mouse i.p., Table V): ~150 mg/kg
O=C(O)CCCN(C(=O)c1cccc(C(F)(F)F)c1)c1cccc2ccccc12 [compound 42]	–	–	–	–	> 160	< 1	160	–	–
COc1ccc(Cl)cc1C(=O)N(CCCC(=O)O)c1ccccc1-c1ccccc1 [Serial No. 33, 4-[2-methoxy-5-chloro-N-(biphenyl-2-yl)benzamido]butyric acid]	–	–	–	–	–	–	–	–	selectivity ratio [1, 9]: 85; ED50 (pancreatic secretion; [10]): 2 mg/kg; LD50 at 336 h ([2]; mouse i.p., Table VII): 170 mg/kg
COc1ccc2cccc(N(CCCC(=O)O)C(=O)c3ccc(Cl)cc3)c2c1 [Serial No. 46, 4-{p-chloro-[N-(7-methoxy-1-naphthyl)]benzamido}butyric acid]	–	–	–	7	400	0.3	120	17.1	selectivity ratio [4, 14]: 7.5; ED50 (liver damage by CCl4; [8]): 16 mg/kg
CC(C)C(=O)N(CCCCCC(=O)O)c1ccccc1-c1ccccc1 [Serial No. 34, 6-[N-(biphenyl-2-yl)isobutyramido]caproic acid]	–	–	–	< 30	–	–	–	–	selectivity ratio [4, 7]: 8.7; LD50 at 336 h ([2]; mouse i.p., Table V): 260 mg/kg
O=C(O)CCCN(Cc1ccccc1)C(=O)c1ccc(Cl)cc1 [Serial No. 15, N-(p-chloro)benzoyl-4-benzylaminobutyric acid]	233	1.5	350	–	–	–	–	–	–
O=C(O)CCCCCN(C(=O)c1ccc(Cl)cc1)c1cccc2ccccc12 [compound 48]	–	–	–	~7	~160	~1	160	~22.9	–
CC(=O)N(CCCC(=O)O)c1cccc2ccccc12 [Serial No. 39, 4-[N-(α-naphthyl)acetamido]butyric acid]	–	–	–	< 10	~500	~1.5	750	> 75	selectivity ratio [4, 14]: 15; ED50 (liver damage by CCl4; [8]): 50 mg/kg
O=C(O)CCCN(C(=O)c1ccc(Cl)cc1)C(c1ccccc1)c1ccccc1 [Serial No. 12, N-(p-chloro)benzoyl-4-benzhydrylaminobutyric acid]	~2500	~0.1	250	–	–	–	–	–	selectivity ratio [4, 15]: 25; ED50 (liver damage by CCl4; [16]): 10 mg/kg
CC(C)(C)CC(C)(C)N(CCCC(=O)O)C(=O)c1ccc(Cl)cc1 [Serial No. 7, N-(p-chloro)benzoyl-4-[(1,1,3,3-tetramethylbutyl)amino]butyric acid]	110	2	220	–	–	–	–	–	–
O=C(O)CCCN(C(=O)c1ccc(Cl)cc1)C12CC3CC(CC(C3)C1)C2 [Serial No. 6, N-(p-chloro)benzoyl-4-(1-adamantyl)aminobutyric acid]	200	1	200	–	–	–	–	–	–
O=C(O)CCCN(C(=O)c1ccc(Cl)cc1)C1CCCCCCC1 [Serial No. 18, N-(p-chloro)benzoyl-4-cyclooctylaminobutyric acid]	60	2.5	150	–	–	–	–	–	selectivity ratio [4, 15]: 18.8; ED50 (liver damage by CCl4; [16]): 8 mg/kg
COc1ccc(Cl)cc1C(=O)N(CCCC(=O)O)c1cccc2ccccc12 [Serial No. 44, 4-{5-chloro-2-methoxy-[N-(α-naphthyl)]benzamido}butyric acid]	–	–	–	~30	> 270	< 1	270	~9	–
O=C(O)CCCN(C(=O)c1ccc(Cl)cc1Cl)c1cccc2ccccc12 [Serial No. 41, 4-{2,4-dichloro-[N-(α-naphthyl)]benzamido}butyric acid]	–	–	–	10	32	7.5	240	24	selectivity ratio [4, 14]: 9.2; ED50 (liver damage by CCl4; [8]): 26 mg/kg
CC(=O)N(CCCC(=O)O)C1CCCc2ccccc21 (stereo not shown) [compound 49]	–	–	–	< 10	≥ 40	~5	> 200	> 20	–
C#CC1(N(CCCC(=O)O)C(C)=O)CCCCC1 [Serial No. 8, N-acetyl-4-[(1-ethynylcyclohexyl-1)-amino]butyric acid]	> 100	10	> 1000	–	–	–	–	–	–

From patent US4243678A, “Acylhydrocarbylaminoalkanoic acids, compositions and uses” (Byk Gulden Lomberg Chemische Fabrik GmbH, priority 1977, dated 1981)
